In article PMC9792776 (Frontiers in Pharmacology, 2022):
Where two headings read alike, the source gives them in different places.

Assays:
[1] = In vitro Caco-2 cell permeability; format: in vitro ADME; conditions: human
Text: The first-order absorption model has different absorption rate constants (ka) and fraction available from dosage form (fa) to simulate absorption processes in fasting and fed states. […] Caco-2 (human colorectal adenocarcinoma) cells are used to model the intestinal epithelial barrier. The Simcyp (Version 19.0, Certara Inc., Sheffield, UK) minimal PBPK, which treats all organs other than the intestine and liver as a single compartment ([Rowland Yeo et al., 2010]), was selected, along with a single adjusting compartment (SAC) distribution model. The SAC is a nonphysiologic compartment that permits adjustment to the drug concentration profile in the systemic compartment ([Ke et al., 2016]).

in vitro = conditions: human
[2] = target: T1, BCRP (breast cancer resistance protein) (Homo sapiens, UniProt Q9UNQ0); assay: BCRP substrate and in vivo inhibition assessment
T1 sequence (Q9UNQ0 1-655): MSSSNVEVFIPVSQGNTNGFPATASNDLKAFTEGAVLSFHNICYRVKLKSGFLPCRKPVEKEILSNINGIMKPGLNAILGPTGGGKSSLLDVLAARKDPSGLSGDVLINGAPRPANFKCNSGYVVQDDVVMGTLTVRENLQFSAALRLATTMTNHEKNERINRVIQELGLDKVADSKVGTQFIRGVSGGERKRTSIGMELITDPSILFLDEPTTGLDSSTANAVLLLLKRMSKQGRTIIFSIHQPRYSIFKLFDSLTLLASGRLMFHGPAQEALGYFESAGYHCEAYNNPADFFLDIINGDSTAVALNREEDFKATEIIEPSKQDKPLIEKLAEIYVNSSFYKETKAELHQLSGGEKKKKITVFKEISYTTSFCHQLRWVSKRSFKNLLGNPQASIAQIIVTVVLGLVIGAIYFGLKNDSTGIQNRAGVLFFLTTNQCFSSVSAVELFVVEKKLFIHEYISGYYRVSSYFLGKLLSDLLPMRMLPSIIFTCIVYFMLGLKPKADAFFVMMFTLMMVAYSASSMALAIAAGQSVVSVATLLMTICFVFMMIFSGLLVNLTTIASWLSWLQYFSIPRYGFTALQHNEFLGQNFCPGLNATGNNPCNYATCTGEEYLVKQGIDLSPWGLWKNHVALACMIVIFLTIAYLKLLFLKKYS
Text: The effects of transporters expressed on the gut and liver have not been investigated.

CYP2C19 = CYP2C19 (Homo sapiens, UniProt P33261); assay: CYP2C19 inhibition in human liver microsomes
Protocol: Ki=IC50/1+S/Km (1) Where IC50 signifies the half-maximum inhibitory concentration; S, the concentration of P450 marker substrate; and K m , the Michaelis constant within the Michaelis-Menten equation, which is in turn used to characterize substrate-enzyme binding kinetics.
The Michaelis constant (K m ) of CYP2C9 incubated with diclofenac was obtained from reported data ([Lee et al., 2014]). Methods used to calculate the Ki of CYP2C19 and CYP2C9 were similar.

P-gp = P-gp (Homo sapiens, UniProt P08183); assay: P-gp inhibition (Ki calculated from IC50); format: in vitro ADME; conditions: calculated with IC50, substrate concentration and substrate Km
MATE2K = MATE2K (Homo sapiens, UniProt Q86VL8); assay: Transporter substrate/inhibitor assessment, MATE2K; format: in vitro ADME
[3] = system: imatinib-resistant and imatinib-sensitive gastrointestinal stromal tumor cell lines; design: method as in Liu et al., 2019; conditions: imatinib-resistant and imatinib-sensitive GIST cell lines; ref Liu et al., 2019; cited from earlier work
CYP2C9 [4] = system: CYP2C9
CYP2C9 [5] = assay: in vitro; conditions: human
[6] = Fraction unbound (fu) in human plasma; format: in vitro ADME
CYP3A4 = CYP3A4 (Homo sapiens, UniProt P08684); assay: Clinical DDI study with itraconazole and rifampicin in healthy American (White) subjects; conditions: for Cmax: plasma, oral, Cmax Obs.
Protocol: After a 3-day washout period, they were pretreated with 200 mg of oral itraconazole once daily for 4 days to inhibit CYP3A4 (Days 5–8). […] After a 3-day washout, subjects were pretreated with 600 mg of oral rifampicin once daily for 7 days to induce CYP3A4 (Days 5–11). […] Blood samples were collected immediately before and after drug administration at 0.5, 1, 2, 4, 6, 8, 12, 24, 48, 72, and 96 h.

OAT1 = target: T2, OAT1 (Homo sapiens, UniProt Q4U2R8); assay: Transporter substrate/inhibitor assessment, OAT1; format: in vitro ADME
T2 sequence (Q4U2R8 1-563): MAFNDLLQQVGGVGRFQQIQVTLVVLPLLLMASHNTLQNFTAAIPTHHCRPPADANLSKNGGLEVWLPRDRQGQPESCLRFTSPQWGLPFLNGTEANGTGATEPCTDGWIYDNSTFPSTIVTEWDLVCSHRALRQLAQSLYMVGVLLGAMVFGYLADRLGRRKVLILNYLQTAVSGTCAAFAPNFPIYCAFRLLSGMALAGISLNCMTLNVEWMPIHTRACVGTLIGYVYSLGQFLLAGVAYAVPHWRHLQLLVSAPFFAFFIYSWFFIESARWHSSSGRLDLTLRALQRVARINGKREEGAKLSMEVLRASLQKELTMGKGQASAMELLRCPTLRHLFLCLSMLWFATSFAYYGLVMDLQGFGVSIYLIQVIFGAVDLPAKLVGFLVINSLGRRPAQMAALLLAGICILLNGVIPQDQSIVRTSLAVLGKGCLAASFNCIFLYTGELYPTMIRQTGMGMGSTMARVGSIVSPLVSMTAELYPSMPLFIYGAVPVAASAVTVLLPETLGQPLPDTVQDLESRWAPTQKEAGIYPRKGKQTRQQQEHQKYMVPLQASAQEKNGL

pKa = format: physicochemical
Text: TABLE 1 Model development and model parameters. | column: Value

Chain of CYP3A4 (P08684 whole entry): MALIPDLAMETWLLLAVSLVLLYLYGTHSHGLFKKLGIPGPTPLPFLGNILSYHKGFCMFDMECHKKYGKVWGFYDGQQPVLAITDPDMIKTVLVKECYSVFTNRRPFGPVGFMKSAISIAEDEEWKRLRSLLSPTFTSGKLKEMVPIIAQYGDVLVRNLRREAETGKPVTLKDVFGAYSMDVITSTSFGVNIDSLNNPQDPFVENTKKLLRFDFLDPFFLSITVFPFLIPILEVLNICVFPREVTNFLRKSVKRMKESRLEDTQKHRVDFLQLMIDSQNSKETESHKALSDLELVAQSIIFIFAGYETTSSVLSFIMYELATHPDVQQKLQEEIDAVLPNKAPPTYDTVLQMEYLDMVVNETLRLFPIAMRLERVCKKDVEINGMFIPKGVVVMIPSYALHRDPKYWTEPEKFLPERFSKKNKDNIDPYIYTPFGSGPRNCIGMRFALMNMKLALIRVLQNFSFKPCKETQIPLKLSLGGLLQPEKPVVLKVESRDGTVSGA
Chain of CYP2C19 (P33261 whole entry): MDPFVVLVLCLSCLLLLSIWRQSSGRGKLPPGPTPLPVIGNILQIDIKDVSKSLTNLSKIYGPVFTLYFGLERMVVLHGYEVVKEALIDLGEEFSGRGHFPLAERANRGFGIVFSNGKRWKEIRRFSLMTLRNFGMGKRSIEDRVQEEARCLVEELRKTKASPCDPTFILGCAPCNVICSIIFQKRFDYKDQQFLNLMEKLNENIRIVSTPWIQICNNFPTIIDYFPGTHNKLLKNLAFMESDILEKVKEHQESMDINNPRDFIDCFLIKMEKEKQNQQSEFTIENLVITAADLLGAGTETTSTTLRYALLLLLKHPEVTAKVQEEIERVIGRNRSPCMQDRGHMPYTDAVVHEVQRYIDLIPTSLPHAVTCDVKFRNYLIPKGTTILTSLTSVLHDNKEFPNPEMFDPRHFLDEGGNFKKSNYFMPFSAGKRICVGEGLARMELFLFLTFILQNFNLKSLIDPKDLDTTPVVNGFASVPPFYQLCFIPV
Chain of MATE2K (Q86VL8 1-566 isoform Q86VL8-3, species assumed): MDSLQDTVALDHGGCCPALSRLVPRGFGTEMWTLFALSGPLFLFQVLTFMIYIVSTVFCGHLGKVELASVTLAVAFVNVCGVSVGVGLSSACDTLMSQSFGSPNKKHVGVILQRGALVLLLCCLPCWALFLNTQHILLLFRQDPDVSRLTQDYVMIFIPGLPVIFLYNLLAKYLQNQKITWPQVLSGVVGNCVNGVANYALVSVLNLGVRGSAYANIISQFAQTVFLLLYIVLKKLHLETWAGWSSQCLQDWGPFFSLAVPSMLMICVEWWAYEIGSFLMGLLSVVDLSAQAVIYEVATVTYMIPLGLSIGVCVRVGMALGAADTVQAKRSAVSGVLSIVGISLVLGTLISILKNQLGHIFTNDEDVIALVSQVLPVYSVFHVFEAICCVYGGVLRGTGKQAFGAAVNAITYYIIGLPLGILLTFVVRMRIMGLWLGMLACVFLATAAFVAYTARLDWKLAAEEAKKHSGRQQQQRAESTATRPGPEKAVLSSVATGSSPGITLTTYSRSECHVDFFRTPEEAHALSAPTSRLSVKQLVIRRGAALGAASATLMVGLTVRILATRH
Chain of P-gp (P08183 whole entry): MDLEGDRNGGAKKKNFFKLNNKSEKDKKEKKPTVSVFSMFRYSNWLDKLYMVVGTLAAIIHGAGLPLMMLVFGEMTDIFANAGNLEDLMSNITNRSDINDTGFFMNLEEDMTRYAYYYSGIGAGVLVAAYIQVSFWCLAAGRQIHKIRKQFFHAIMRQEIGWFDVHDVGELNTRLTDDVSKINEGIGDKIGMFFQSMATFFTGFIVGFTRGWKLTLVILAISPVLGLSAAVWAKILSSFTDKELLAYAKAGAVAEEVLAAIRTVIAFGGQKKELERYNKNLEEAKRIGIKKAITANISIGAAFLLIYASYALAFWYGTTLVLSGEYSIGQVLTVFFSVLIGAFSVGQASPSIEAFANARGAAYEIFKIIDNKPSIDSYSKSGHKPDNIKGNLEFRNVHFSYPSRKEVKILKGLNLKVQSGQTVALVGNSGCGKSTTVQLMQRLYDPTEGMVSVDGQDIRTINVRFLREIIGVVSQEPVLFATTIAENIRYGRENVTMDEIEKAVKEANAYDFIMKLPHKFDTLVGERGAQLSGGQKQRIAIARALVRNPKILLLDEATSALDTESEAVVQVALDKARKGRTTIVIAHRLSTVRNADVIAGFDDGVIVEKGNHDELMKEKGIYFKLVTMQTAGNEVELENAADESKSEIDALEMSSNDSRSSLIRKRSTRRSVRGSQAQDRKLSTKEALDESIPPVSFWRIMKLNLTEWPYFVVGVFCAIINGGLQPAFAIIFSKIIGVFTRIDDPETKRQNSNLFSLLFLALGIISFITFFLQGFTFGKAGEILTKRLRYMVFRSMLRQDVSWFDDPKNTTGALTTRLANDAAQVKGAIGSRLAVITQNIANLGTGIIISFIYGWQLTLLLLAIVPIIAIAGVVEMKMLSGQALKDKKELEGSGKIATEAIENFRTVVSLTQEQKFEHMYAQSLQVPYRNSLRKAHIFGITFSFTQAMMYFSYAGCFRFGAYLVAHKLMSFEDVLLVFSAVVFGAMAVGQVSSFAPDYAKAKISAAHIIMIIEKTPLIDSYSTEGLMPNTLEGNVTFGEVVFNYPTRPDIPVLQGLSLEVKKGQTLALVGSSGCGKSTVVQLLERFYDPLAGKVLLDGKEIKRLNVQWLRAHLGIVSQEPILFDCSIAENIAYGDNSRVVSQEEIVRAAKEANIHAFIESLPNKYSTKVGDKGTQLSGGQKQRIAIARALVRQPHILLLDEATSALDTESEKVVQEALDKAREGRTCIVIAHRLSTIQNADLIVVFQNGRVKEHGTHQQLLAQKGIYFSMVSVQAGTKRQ

Structure (SMILES): Cc1ccc(C(=O)Nc2ccc(CN3CCN(C)CC3)c(C(F)(F)F)c2)cc1C#Cc1cnc2[nH]ncc2c1 [olverembatinib, Olverembatinib]
- Papp [1]: 0.08 ×10⁻⁶ cm/s
- microsomal CLint (in vitro): 5.26 µL/min/mg
- in vivo inhibition on BCRP [2]: no obvious in vivo inhibition
- substrate of BCRP [2]: is a substrate
- Ki (CYP2C19): 1920 nM
- CYP2C19 inhibition, strength (CYP2C19; microsomes): weak
- Ki (P-gp): 2230 nM
- substrate or inhibitor of MATE2K (MATE2K): neither a substrate nor inhibitor
- antiproliferative activity compared with ponatinib [3]: equivalent or more potent antiproliferative activity
- CYP2C9 induction, strength (CYP2C9 [4]; hepatocytes): weak
- EC50 (CYP2C9 [4]; human): 323 nM
- EC50 (CYP2C9 [5]; EC50): 584 nM
- EC50 (CYP2C9 [5]; IndC50 CYP2C9 (Mean EC50)): 454 nM
- fraction unbound ([6]; mean of three test concentrations, read-out: mean fu (fu,p, fraction unbound in plasma)): 0.0005
- fraction unbound at 80 ng/ml ([6]; test concentration 80 ng/ml, read-out: fu (N=3)): 0.0007
- fraction unbound at 400 ng/ml ([6]; test concentration 400 ng/ml, read-out: fu (N=3)): 0.0004
- fraction unbound at 4000 ng/ml ([6]; test concentration 4000 ng/ml, read-out: fu (N=3)): 0.0004
- AUC Obs. (CYP3A4; White healthy volunteers, fed, 20 mg SD, olverembatinib alone): 125 h?ng/mL
- AUC Obs. (CYP3A4; White healthy volunteers, fed, 40 mg SD, olverembatinib alone): 302 h?ng/mL
- AUC Obs. (CYP3A4; coadministration with itraconazole, healthy White volunteers): 330 h?ng/mL
- AUC Obs. (CYP3A4; coadministration with rifampicin, healthy White volunteers): 73.0 h?ng/mL
- AUC decrease after rifampicin administration (CYP3A4; human, in vivo): 76%
- AUC increase after itraconazole treatment (CYP3A4; human, in vivo, 200 mg): 163%
- Cmax (CYP3A4; human, 20 mg, White healthy volunteers, fed, 20 mg SD, olverembatinib alone): 5.26 ng/mL
- Cmax (CYP3A4; human, 40 mg, White healthy volunteers, fed, 40 mg SD, olverembatinib alone): 12.7 ng/mL
- Cmax (CYP3A4; human, coadministration with itraconazole, healthy White volunteers): 9.14 ng/mL
- Cmax (CYP3A4; human, coadministration with rifampicin, healthy White volunteers): 4.54 ng/mL
- substrate or inhibitor of OAT1 (OAT1): neither a substrate nor inhibitor
- pKa (pKa; read-out: pKa 1): 2.9
- pKa (pKa; read-out: pKa 2): 10.9
